The values that follow come from patent US5326902A, “Oxyalkyne compounds, pharmaceutical compositions containing them and processes for preparing such compounds and compositions” (Gruenenthal GmbH, priority 1992, dated 1994).

In assay [1] the target is T1, 5-lipoxygenase (Rattus norvegicus, UniProt P12527).
T1 construct: endogenous in cells; host or cells: RBL-1 cells (rat basophilic leukemia)
T1 sequence (P12527 1-673): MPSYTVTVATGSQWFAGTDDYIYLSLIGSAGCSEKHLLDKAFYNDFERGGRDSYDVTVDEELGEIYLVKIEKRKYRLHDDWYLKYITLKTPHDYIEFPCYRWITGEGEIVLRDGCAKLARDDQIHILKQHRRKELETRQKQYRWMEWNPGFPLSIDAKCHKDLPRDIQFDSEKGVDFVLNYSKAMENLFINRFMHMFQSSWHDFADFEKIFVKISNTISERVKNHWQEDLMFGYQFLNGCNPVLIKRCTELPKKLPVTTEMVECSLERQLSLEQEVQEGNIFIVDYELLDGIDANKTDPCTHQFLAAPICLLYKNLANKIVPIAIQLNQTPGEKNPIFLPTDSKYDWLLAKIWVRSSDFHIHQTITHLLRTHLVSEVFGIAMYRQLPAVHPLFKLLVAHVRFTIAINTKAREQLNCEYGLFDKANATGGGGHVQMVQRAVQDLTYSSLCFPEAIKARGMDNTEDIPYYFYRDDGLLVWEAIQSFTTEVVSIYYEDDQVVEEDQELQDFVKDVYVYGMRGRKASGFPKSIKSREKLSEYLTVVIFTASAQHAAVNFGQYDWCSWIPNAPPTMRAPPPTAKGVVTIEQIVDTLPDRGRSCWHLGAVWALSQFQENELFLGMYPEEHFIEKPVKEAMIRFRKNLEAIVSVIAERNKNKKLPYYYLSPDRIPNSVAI
In words: Inhibition of 5-lipoxygenase in RBL-1-cells. In kind it is cell-based. The settings on record: 20 μM [14C]-arachidonic acid, 20 μM calcium ionophore A 23 187, 10 minutes. The protocol:
To determine the inhibition of 5-lipoxygenase, rat basophilic leukemia cells (RBL-1-cells) were cultured in vitro, harvested by centrifugation, washed with 50 mM potassium phosphate buffer of pH 7.4, and then suspended in this buffer at 1×10^7 cells/ml. Indomethacin (10 μM) and calcium chloride (2 mM) were added to 1 ml portions of this suspension, and then the mixture was incubated either in the presence of a compound according to the invention in a concentration range of from 0,1 μM to 100 μM or in the presence of a solvent (ethanol and/or dimethyl sulfoxide) for 3 minutes and thereafter with 20 μM of [^14 C]-arachidonic acid and 20 μM of calcium ionophore A 23 187 for 10 minutes. The reaction was stopped by adding 20 μl of glacial acetic acid, and then the mixture was extracted with ethyl acetate to isolate the metabolites of arachidonic acid formed by the enzymatic action of 5-lipoxygenase. These were separated by thin layer chromatography using a solvent mixture known to be suitable for lipoxygenase products [c.f. Jakschik et al., Biochem. Biophys. Res. Commun. 102, 624 (1981)].
The distribution of radioactivity among the different metabolites of arachidonic acid was measured using a TLC Linear Analyzer. By correlating the percentage amounts of the products formed under the action of 5-lipoxygenase (5HETE, isomers of LTB4) in the absence as well as in the presence of different concentrations of compounds according to the invention, the IC50 -values, i.e. the concentrations which cause a 50% inhibition of 5-lipoxygenase, were determined graphically from semilogarithmic plots.

Assay [2] relates to 5-lipoxygenase. The assay can be described thus: Inhibition of 5-lipoxygenase in Rat Blood After Oral Administration (ex vivo iLTB4-formation). The settings on record: male Wistar rats, one hour after administration. As for the experimental part:
The bioavailability of the compounds of formula I as 5-lipoxygenase inhibitors was characterized by means of an ex vivo biochemical assay method described by Tateson et al. in Brit. J. Pharmacol. 94, 528 (1988): A compound of formula I was orally administered to male rats (Wistar strain) at a dose of 21.5 mg/kg. After lethal CO2 -narcosis one hour after administration, the rats were bled by heart puncture with added heparin as an anticoagulant. Aliquots of the whole blood were incubated at 37° C. for 30 minutes in a water bath with calcium ionophore A 23 187 at an end concentration of 15 μg/ml. At the end of the incubation, the samples were centrifuged, and the concentration of the immunoreactive LTB4 (iLTB4) in aliquots of cell-free plasma was determined by radioimmunoassay (3H-LTB4 -RIA, Amersham). To enable calculation of the inhibition in percent of ex vivo iLTB4 -formation in whole rat blood treated with a compound according to the invention, rats orally treated with an appropriate vehicle solution were included in all experiments, and aliquots of their blood were run in parallel and were processed in the same way as described. The average iLTB4 -content of the plasma of the vehicletreated rats served as a 100% value. The activity in percent of the ex vivo iLTB4 -formation after oral administration of a compound according to the invention was calculated by dividing the average value of the iLTB4 -contents in ng iLTB4 /ml of the group treated with a compound according to the invention by the average value of the iLTB4 -contents in ng iLTB4 /ml of the vehicle treated group and subsequent multiplication by a factor of 100. The respective inhibition in percent was calculated by subtracting the activity in percent from 100.

The target of assay [3] is T1, 5-lipoxygenase. In words: Inhibition of Cell-free 5-lipoxygenase from RBL-1-cells (polarographic, 10,000 × g supernatant). Format: biochemical. The settings on record: 10,000 × g supernatant of homogenized RBL-1-cells; arachidonic acid 75 μM; 35° C.; calculated IC50. The protocol:
Cell-free 5-lipoxygenase was polarographically measured from 10,000 × g supernatant of homogenized rat basophilic leucemia cells (M. Haurand & L. Flohe in Biol. Chem. Hoppe-Seyler 369, 133 to 142 (1988)). After preincubation of the 10,000 × g supernatant with arachidonic acid (75 μM), ATP (adenosine triphosphate; 4 mM), reduced glutathione (4 mM), and either a compound according to the invention (0.1 to 100 μM) or a solvent (ethanol and/or dimethyl sulfoxide) at 35° C. for 5 minutes, the lipoxygenase reaction was initiated by addition of calcium chloride (3 mM) and simultaneously recorded.
The activity of 5-lipoxygenase was determined from the difference in the pO2 -decrease before and after addition of calcium chloride. The evaluation included the initial rate of the reaction after the lag-phase as well as the duration of the lag-phase. In the concentration range of from 3 to 50 μM, the test substances induced lag-phases between 20 and 60 seconds.

For the next assay, the target named is T2, 12-lipoxygenase (Homo sapiens, UniProt P18054).
T2 sequence (P18054 1-663): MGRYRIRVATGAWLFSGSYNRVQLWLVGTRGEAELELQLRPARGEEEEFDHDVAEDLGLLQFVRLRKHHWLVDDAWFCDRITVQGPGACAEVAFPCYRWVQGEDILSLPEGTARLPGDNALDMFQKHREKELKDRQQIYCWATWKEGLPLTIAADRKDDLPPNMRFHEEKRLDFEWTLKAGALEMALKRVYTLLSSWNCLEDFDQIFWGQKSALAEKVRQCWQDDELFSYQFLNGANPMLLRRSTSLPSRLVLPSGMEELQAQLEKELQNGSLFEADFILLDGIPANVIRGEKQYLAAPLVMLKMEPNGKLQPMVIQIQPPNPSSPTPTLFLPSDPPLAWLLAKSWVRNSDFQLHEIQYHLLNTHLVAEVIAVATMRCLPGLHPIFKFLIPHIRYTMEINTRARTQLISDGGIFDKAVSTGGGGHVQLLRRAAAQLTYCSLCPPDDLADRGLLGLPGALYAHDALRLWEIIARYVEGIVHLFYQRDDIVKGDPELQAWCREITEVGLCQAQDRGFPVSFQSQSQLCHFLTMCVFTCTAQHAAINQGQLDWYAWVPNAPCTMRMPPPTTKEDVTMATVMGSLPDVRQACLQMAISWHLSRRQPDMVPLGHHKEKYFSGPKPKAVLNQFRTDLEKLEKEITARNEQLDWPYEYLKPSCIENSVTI
In words: Inhibition of 12-lipoxygenase in human blood. Format: cell-based. The arrangement: 3 ml aliquots of human whole blood treated with heparin; from tissue; host or cells: human whole blood (heparinized). The note with it: human whole blood; calcium ionophore A 23 187 15 μg/ml; 37° C., 30 minutes; 12-HETE by HPLC. The protocol:
3 ml aliquots of human whole blood treated with heparin were incubated either with a compound according to the invention or with dimethyl sulfoxide at 37° C. for 5 minutes. Then 12-lipoxygenase was activated by addition of calcium ionophore A 23 187 (15 μg/ml blood). After incubation at 37° C. for 30 minutes and centrifugation, cell-free plasma was obtained. Plasma protein was precipitated by addition of 2 ml of ethanol per ml of plasma and then separated by centrifugation. After adjusting the ethanol content in the supernatant with water to 10% by volume, the 12-lipoxygenase product 12-HETE was enriched by solid phase extraction using an octadecyl silica column. The methanolic eluate was evaporated to dryness, diluted in 40% by volume of methanol, and the 12-HETE-content was determined by HPLC. The IC50 -values of the compounds of the invention prepared according to Examples 1, 8 and 16 were 2, 4 and 3 μmolar, respectively.

Assay [4] deals with bronchoconstriction elicited by ovalbumin. The assay can be described thus: Allergen-induced bronchoconstriction in guinea pigs (Konzett-Rossler). In kind it is in vivo, guinea pig. The settings on record: Cavia porcellus, 1 h; oral, 60 minutes before ovalbumin (0.2 mg/kg intravenous); passively sensitized guinea pigs; read-out: ED40-Value (40% average inhibition of the bronchoconstriction elicited by ovalbumin). As for the experimental part:
The anti-asthmatic effect of compounds according to the invention was tested in anesthetized and ventilated guinea pigs. To induce an asthmatic reaction, the animals were passively sensitized by a single intraperitoneal injection of anti-ovalbumin serum. After 48 hours, the asthmatic reaction was elicited by intravenous challenge with 0.2 mg/kg of ovalbumin. The immediately resulting bronchoconstriction was measured as an increase in intratracheal pressure. Effects caused by histamine, serotonin and sympathic counterreaction were eliminated by intravenous pretreatment with 2.15 mg/kg of mepyramine, 46.4 μg/kg of propranolol, 4.64 mg/kg of atropine and 1 mg/kg of methysergide, all administered 5 minutes before challenge. Compounds according to the invention were administered orally 60 minutes before the administration of ovalbumin. The following […] for the inhibition of the bronchoconstriction elicited by ovalbumin, i.e. the effective doses causing a 40% average inhibition of the bronchoconstriction, were determined: […]

Each structure is given as a SMILES string.

With `CC(=O)N(O)Cc1ccc(C(O)C#Cc2ccc(Cl)cc2)cc1` (centres unmarked) [Example 11, N-Hydroxy-N-[4-[1-hydroxy-3-(4-chlorophenyl)prop-2-yn-1-yl]benzyl]acetamide], on 5-lipoxygenase [1], the IC50 came to 8 µM. Besides, in the assay with 5-lipoxygenase [2] (dose 10 mg/kg, oral), the “Inhibition [%] of ex vivo iLTB4-formation” value (from here on “Inhibition [%]”) is 95%.
As to `CC(=O)N(O)Cc1ccc(C(O)C#Cc2ccsc2)cc1` (centres unmarked) [Example 17, N-Hydroxy-N-[4-[1-hydroxy-3-(3-thienyl)prop-2-yn-1-yl]benzyl]acetamide], the IC50 on 5-lipoxygenase [1] amounted to 5 µM. Further, the “Inhibition [%]” value in the assay with 5-lipoxygenase [2] (21.5 mg/kg oral) worked out at 77%.
Take `CC(=O)N(O)Cc1ccc(C(O)C#Cc2cccc(Cl)c2)cc1` (centres unmarked) [Example 10, N-Hydroxy-N-[4-[1-hydroxy-3-(3-chlorophenyl)prop-2-yn-1-yl]benzyl]acetamide]: the IC50 at 5-lipoxygenase [1] is 4 µM. Besides, the “Inhibition [%]” value in the assay on 5-lipoxygenase [2] (21.5 mg/kg oral) stood at 75%.
As for `CC(=O)N(O)Cc1ccc(C(O)C#Cc2cccc3ccccc23)cc1` (centres unmarked) [Example 15, N-Hydroxy-N-[4-[1-hydroxy-3-(1-naphthyl)prop-2-yn-1-yl]benzyl]acetamide], the values for the IC50 on 5-lipoxygenase [1] and on 5-lipoxygenase [3] were 3 µM and 7 µM, respectively. Besides, the “Inhibition [%]” value with 5-lipoxygenase [2] (21.5 mg/kg oral) turned out to be 71%.
Consider `CC(=O)N(O)Cc1ccc(C(O)C#Cc2cccs2)cc1` (centres unmarked) [Example 16, N-Hydroxy-N-[4-[1-hydroxy-3-(2-thienyl)prop-2-yn-1-yl]benzyl]acetamide], for which the IC50 on 5-lipoxygenase [1] is 3 µM; on 5-lipoxygenase [3], 6 µM; on 12-lipoxygenase it was 3 µM.
Regarding `CC(=O)N(O)Cc1ccc(C(O)C#Cc2ccccc2)cc1` (single isomer, unassigned; (-)) [Example 3, (-)-N-Hydroxy-N-[4-[1-hydroxy-3-phenyl-prop-2-yn-1-yl]benzyl]acetamide], the IC50 on 5-lipoxygenase [1] came to 5 µM. For the same compound, in assay [4], the ED40 was 9 mg/kg.
In the case of `NC(=O)N(O)Cc1ccc(C(O)C#Cc2ccc(F)cc2)cc1` (racemic) [Example 25, N-Hydroxy-N-[4-[1-hydroxy-3-(4-fluorophenyl)prop-2-yn-1-yl]benzyl]urea], the IC50 at 5-lipoxygenase [1] and at 5-lipoxygenase [3] was 3 µM each time. Moreover, the ED40 in assay [4] was 10 mg/kg.
In the case of `NC(=O)N(O)Cc1ccc(C(O)C#Cc2ccccc2Cl)cc1` (centres unmarked) [Example 22, N-Hydroxy-N-[4-[1-hydroxy-3-(2-chlorophenyl)prop-2-yn-1-yl]benzyl]urea], the IC50 on 5-lipoxygenase [1] was 4 µM; at 5-lipoxygenase [3], 8 µM. The “Inhibition [%]” value in the assay on 5-lipoxygenase [2] (dose 10 mg/kg, oral) worked out at 83%.
`COc1cccc(C#CC(O)c2ccc(CN(O)C(N)=O)cc2)c1` (centres unmarked) [Example 26, N-Hydroxy-N-[4-[1-hydroxy-3-(3-methoxyphenyl)prop-2-yn-1-yl]benzyl]urea]: at 5-lipoxygenase [1], the IC50 turned out to be 4 µM. Further, the ED40 in assay [4] was determined as 17 mg/kg.
The corresponding values for `NC(=O)N(O)Cc1ccc(C(O)C#Cc2ccsc2)cc1` (centres unmarked) [Example 28, N-Hydroxy-N-[4-[1-hydroxy-3-(3-thienyl)prop-2-yn-1-yl]benzyl]urea] are 4 µM and 17 mg/kg.
Regarding `NC(=O)N(O)Cc1ccc(C(O)C#Cc2cccc(Cl)c2)cc1` (centres unmarked) [Example 23, N-Hydroxy-N-[4-[1-hydroxy-3-(3-chlorophenyl)prop-2-yn-1-yl]benzyl]urea], the IC50 on 5-lipoxygenase [1] came to 4 µM. Further, the ED40 in assay [4] came to 18 mg/kg.
